Measurements: US20120142722A1, “CONJUGATES OF CYTOTOXIC DRUGS” (priority 2009, published 2012)
Values joined by “and” are separate entries in the source; they are usually repeats but may differ in a detail not shown here. Identical values can stand only once. “Also recorded” adds a separate entry of the source. Like-named read-outs stand apart in the source and are kept apart here.

How the values were obtained:
A375-melanoma cells = assay: In vitro cytotoxicity, XTT tetrazolium dye reduction cell viability assay; assay type: cell-based; details: Homo sapiens
[1] = Maximal tolerated dose in healthy nude mice; details: female, athymic (nu/nu), mouse, in vivo, iv; i.v. on 5 consecutive days; determined 24 hr after the last dose; no lethality and body weight loss <20%
Protocol: Increasing doses of ATT-11E were tested on nude mice for their effect on body weight. Healthy female athymic (nu/nu) mice (6-8 weeks) (Harlan Inc., Jerusalem, Israel) were used for determination of maximum tolerable dose (MTD). MTD was defined as the maximum dose that caused no drug-related lethality and that produced animal body weight loss of <20% of original weight. ATT-11E was dissolved in phosphate buffer (pH 7.4) containing 10% DMSO and 30% cremophor and administered by i.v. injection. ATT-11E was administered on 5 consecutive days. Body weight of mice was monitored daily and MTD was determined 24 hr post last dose.

A375 melanoma tumors = assay: Tumor growth inhibition in subcutaneous A375 melanoma xenograft; assay type: in vivo, athymic nude mice
[2] = White blood cell count in A375 tumor bearing mice; assay type: in vivo; details: ATT-1 3 doses of 30 mg/kg, CCNU 6 doses of 15 mg/kg; tested 1 and 4 days post last dose
Protocol: Repeated doses of ATT-1 (3 doses of 30 mg/kg) and CCNU (6 doses of 15 mg/kg) were administered to A375 tumor bearing mice and WBC was tested (at AML, Herzelia, Israel) 1 and 4 days post last dose.

[3] = mouse, in vivo
[4] = A-375, 48 h, read-out: IC50 (inhibitory concentration of 50% of cells)
[5] = female, beagle, dog, in vivo, iv, 6 mg/kg

With `CCOC(=O)C(C)(CCC1CCN(C(=O)Oc2ccc3nc4c(c(CC)c3c2)Cn2c-4cc3c(c2=O)COC(=O)C3(O)CC)CC1)C(=O)OCC` (stereo not shown) [ATT-11E] the IC50 (A375-melanoma cells; A-375, 24 h) was 0.6 µM, the IC50 (A375-melanoma cells; [4]) was 0.6 µM and the MTD at 5 days [1] was > 40 mg/kg. The “% inhibition” value (A375 melanoma tumors; mouse, in vivo, 1 mg/kg) was 54%, the T/C (A375 melanoma tumors; mouse, in vivo, 1 mg/kg) was 0.46 and 0.62 and the “% inhibition” value (A375 melanoma tumors; mouse, in vivo, 2.5 mg/kg) was 65%. The T/C (A375 melanoma tumors; mouse, in vivo, 2.5 mg/kg) was 0.35, the T/C (A375 melanoma tumors; mouse, in vivo, 3 mg/kg) was 0.41 and the “% inhibition” value (A375 melanoma tumors; mouse, in vivo, 5 mg/kg) was 72%. The T/C (A375 melanoma tumors; mouse, in vivo, 5 mg/kg) was 0.28, the T/C (A375 melanoma tumors; mouse, in vivo, 9 mg/kg) was 0.39 and the “% inhibition” value (A375 melanoma tumors; mouse, in vivo, 20 mg/kg) was 88%. For the same molecule, the “Tumor volume growth inhibition (TVI)” value (A375 melanoma tumors; mouse, in vivo, 20 mg/kg) was 97%, the “% inhibition” value (A375 melanoma tumors; mouse, in vivo, 30 mg/kg) was 93% and the T/C (A375 melanoma tumors; mouse, in vivo, 30 mg/kg) was 0.07. The T/C (A375 melanoma tumors; mouse, in vivo, 40 mg/kg) was 0.1 and the “Tumor volume growth inhibition (TVI)” value (A375 melanoma tumors; mouse, in vivo, 40 mg/kg) was 90%.

`CCOC(=O)C(C)(CCC1CCC(NC(=O)N(CCCl)N=O)CC1)C(=O)OCC` (stereo not shown) [ATT-5E] showed an IC50 (A375-melanoma cells; [4]) of 130 µM.

For `CCc1c2c(nc3ccc(OC(=O)N4CCC(CCC(C)(C(=O)OC(C)(C)C)C(=O)OC(C)(C)C)CC4)cc13)-c1cc3c(c(=O)n1C2)COC(=O)C3(O)CC` (stereo not shown) [ATT-11TBE], the IC50 (A375-melanoma cells; A-375, 24 h) was 0.8 µM, the “Tumor growth delay after the last dose (in words)” value (A375 melanoma tumors; mouse, in vivo) was “complete tumor regression; also recorded: substantially inhibited tumor growth, even 22 days after the last dose” and the “Tumor volume growth inhibition (TVI)” value (A375 melanoma tumors; mouse, in vivo, 5 mg/kg) was 97%. For the same molecule, the “Tumor volume growth inhibition (TVI)” value (A375 melanoma tumors; mouse, in vivo, 20 mg/kg) was 100%, the “Plasma level of derived SN-38 at 24 hours after administration (in words)” value (dog, in vivo) was “still detectable” and the “AUC of metabolite SN-38, fold larger than SN-38 derived from CPT-11” value [5] was 3.6 fold. For the same molecule, the “Plasma half-life (t1/2) of metabolite SN-38, fold longer than SN-38 derived from CPT-11” value [5] was 3.1 fold.

In the case of `CCc1c2c(nc3ccc(OC(=O)N4CCC(N5CCCCC5)CC4)cc13)-c1cc3c(c(=O)n1C2)COC(=O)[C@]3(O)CC` [CPT-11, Irinotecan, reference compound], the IC50 (A375-melanoma cells; A-375, 24 h, A375 cells, Example 10, incubated for 24 hr, XTT, read-out: IC50) is reported as 44 µM, the IC50 (A375-melanoma cells; A-375, 24 h, A375 cells, Example 15 / FIG. 14, 24 hours of incubation, read-out: IC50) is reported as 9 µM and the “Tumor growth delay after the last dose (in words)” value (A375 melanoma tumors; i.v., ATT-11TBE 20 mg/kg 3 times a week (9 doses), CPT-11 75 mg/kg once a week for three weeks, 22 days after the last dose) is reported as “never reached the complete tumor regression”. The “Plasma level of derived SN-38 at 24 hours after administration (in words)” value (6 mg/kg intravenous, beagle dogs, 24 hours) was “below detection level”.

In the case of `CCCCCC(CCC1CCC(NC(=O)N(CCCl)N=O)CC1)(C(=O)O)C(=O)O` (stereo not shown) [ATT-1], the IC50 (A375-melanoma cells; [4]) is reported as 545 µM, the “Reduction of WBC compared to the control” value [2] is reported as 27% and the T/C (A375 melanoma tumors; mouse, in vivo) is reported as 0.24. For the same molecule, the “T/C, ratio of tumor volume of treated compared to control” value (A375 melanoma tumors; mouse, in vivo) was 0.33, the “T/C, tumor volume treated compared to control” value (A375 melanoma tumors; mouse, in vivo) was 0.52 and the Tumor growth inhibition (A375 melanoma tumors; mouse, in vivo) was 48% and 76%. For the same molecule, the “Tumor growth inhibition compared with control” value (A375 melanoma tumors; mouse, in vivo) was 77% and 73% and the Weight loss [3] was 14%.

For `O=NN(CCCl)C(=O)NC1CCCCC1` [CCNU, Chloroethylcyclo-hexylnitrosourea, reference compound], the IC50 (A375-melanoma cells; A-375, 48 h, A375 cells, 48 hours of incubation, XTT, read-out: IC50 (inhibitory concentration of 50% of cells)) was 200 µM, the “Reduction of WBC compared to the control” value [2] was 89% and the “T/C, tumor volume treated compared to control” value (A375 melanoma tumors; equal total dose: ATT-1 3 doses of 30 mg/kg, CCNU 6 doses of 15 mg/kg, day 23) was 0.47. It also gave a Tumor growth inhibition (A375 melanoma tumors; equi-molar doses: ATT-1 3×30 mg/kg, CCNU 3×15 mg/kg) of 48%, a T/C (A375 melanoma tumors; equi-molar doses: ATT-1 3×30 mg/kg, CCNU 3×15 mg/kg, day 30) of 0.56 and a Weight loss [3] of 19%.
